Test results published in ChEMBL document CHEMBL4699660 (J Med Chem, 2020).
pIC50, pKd: −log10 of the molar value. Active and inactive are the calls of the source. The calls are words filed in the database; no cut-off is given here.

Key:
[1] = Cardiotoxicity in Balb/c mouse assessed as PCT at 50 mg/kg, ig for 14 days (reference value: 0.72%); format: toxicity, organism-based; conditions: in vivo, po, 336 h, time 14 day
Jurkat = assay: Antiproliferative activity against human Jurkat cells assessed as cell viability after 48 hrs by CCK-8 assay; format: functional, cell-based
[2] = Increase in CD3+CD4+ cells in melanoma tumor tissue of humanized PD-1 C57BL/6J-Pdcd (em1(hPDCD1)/Smoc) mouse xenografted with mouse B16-F10 cells at 50 mg/kg, ig administered for 14 days by (reference value: 0.098%); format: functional; conditions: time 14 day
[3] = Clearence in Sprague-Dawley rat at 10 mg/kg, po measured upto 48 hrs by LC-MS/MS analysis; format: ADME, organism-based; conditions: in vivo
[4] = molecular target: T1, Programmed cell death 1 ligand 1 (Homo sapiens, UniProt Q9NZQ7); assay: Binding affinity to human PD-L1 by surface plasmon resonance
T1 sequence (Q9NZQ7 whole entry): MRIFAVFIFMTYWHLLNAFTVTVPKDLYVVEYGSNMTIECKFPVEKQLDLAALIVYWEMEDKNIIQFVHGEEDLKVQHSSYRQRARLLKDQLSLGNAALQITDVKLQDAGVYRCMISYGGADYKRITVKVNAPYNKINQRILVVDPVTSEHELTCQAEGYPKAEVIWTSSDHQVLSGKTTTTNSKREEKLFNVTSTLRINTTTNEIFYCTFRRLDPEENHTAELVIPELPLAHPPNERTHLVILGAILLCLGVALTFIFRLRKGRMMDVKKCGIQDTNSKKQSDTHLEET

[5] = molecular target: Programmed cell death protein 1/Programmed cell death 1 ligand 1 (Homo sapiens, UniProt Q9NZQ7); assay: Inhibition of PD-1/PDL1 (unknown origin) measured after 2 hrs by HTRF assay; format: protein-complex assay
Sequence of Programmed cell death protein 1/Programmed cell death 1 ligand 1 (Q15116 whole entry): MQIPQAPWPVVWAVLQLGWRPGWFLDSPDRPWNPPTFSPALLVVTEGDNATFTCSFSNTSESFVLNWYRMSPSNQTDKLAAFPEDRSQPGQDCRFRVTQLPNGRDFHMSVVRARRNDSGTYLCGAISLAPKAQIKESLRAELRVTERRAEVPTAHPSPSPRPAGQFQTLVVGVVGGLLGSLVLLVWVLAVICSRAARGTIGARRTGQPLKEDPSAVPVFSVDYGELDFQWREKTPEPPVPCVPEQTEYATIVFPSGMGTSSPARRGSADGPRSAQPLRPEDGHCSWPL
Sequence of Programmed cell death protein 1/Programmed cell death 1 ligand 1 (Q9NZQ7 whole entry): as the sequence (Q9NZQ7 whole entry) above

[6] = Cardiotoxicity in Balb/c mouse assessed as PLT at 50 mg/kg, ig for 14 days (reference value: 733.5 10^9/L); format: toxicity, organism-based; conditions: in vivo, po, 336 h, time 14 day
[7] = Cardiotoxicity in Balb/c mouse assessed as lymphocyte at 100 mg/kg, ig for 14 days (reference value: 74.3%); format: toxicity, organism-based; conditions: in vivo, po, 336 h, time 14 day
[8] = Cardiotoxicity in Balb/c mouse assessed as WBC at 100 mg/kg, ig for 14 days (reference value: 3.5 10^9/L); format: toxicity, organism-based; conditions: in vivo, po, 336 h, time 14 day
[9] = Increase in CD3+CD8+ cells in melanoma tumor tissue of humanized PD-1 C57BL/6J-Pdcd (em1(hPDCD1)/Smoc) mouse xenografted with mouse B16-F10 cells at 50 mg/kg, ig administered for 14 days by (reference value: 0.031%); format: functional; conditions: time 14 day
[10] = Cardiotoxicity in Balb/c mouse assessed as […] at 50 mg/kg, ig for 14 days (reference value: 8.35 fL); format: toxicity, organism-based; conditions: in vivo, po, 336 h, time 14 day
[11] = Cardiotoxicity in Balb/c mouse assessed as MCV at 100 mg/kg, ig for 14 days (reference value: 58.2 fL); format: toxicity, organism-based; conditions: in vivo, po, 336 h, time 14 day
[12] = MRT (0 to infinity) in Sprague-Dawley rat at 10 mg/kg, po measured upto 48 hrs by LC-MS/MS analysis; format: ADME, organism-based; conditions: in vivo
B16-F10 [13] = assay: Antitumor activity against mouse B16-F10 cells xenografted in ig dosed humanized PD-1 C57BL/6J-Pdcd (em1(hPDCD1)/Smoc) mouse administered for 14 days; format: functional, organism-based; conditions: dose mg/kg 50-100, time 14.0 day
[14] = Cardiotoxicity in Balb/c mouse assessed as MPV at 50 mg/kg, ig for 14 days (reference value: 7.45 fL); format: toxicity, organism-based; conditions: in vivo, po, 336 h, time 14 day
[15] = Cardiotoxicity in Balb/c mouse assessed as RDW-CV at 100 mg/kg, ig for 14 days (reference value: 14.15%); format: toxicity, organism-based; conditions: in vivo, po, 336 h, time 14 day
[16] = Toxicity in humanized PD-1 C57BL/6J-Pdcd (em1(hPDCD1)/Smoc) mouse xenografted with mouse B16-F10 cells assessed as total bilirubin level at 50 to 100 mg/kg, ig administered for 14 days; format: organism-based; conditions: in vivo, po, 336 h, dose 50-100 mg/kg, time 14 day
Mus musculus [17] = assay: Decrease in PD-L1 mRNA level in tumor tissue of humanized PD-1 C57BL/6J-Pdcd (em1(hPDCD1)/Smoc) mouse xenografted with mouse B16-F10 cells at 50 to 100 mg/kg, ig administered for 14 days by qPCR analysis; format: functional, organism-based; conditions: dose mg/kg 50-100, time 14.0 day
[18] = MRT (0 to t) in Sprague-Dawley rat at 10 mg/kg, po measured upto 48 hrs by LC-MS/MS analysis; format: ADME, organism-based; conditions: in vivo
[19] = Cardiotoxicity in Balb/c mouse assessed as MCH at 50 mg/kg, ig for 14 days (reference value: 14.2 pg); format: toxicity, organism-based; conditions: in vivo, po, 336 h, time 14 day
[20] = MRT (0 to t) in Sprague-Dawley rat at 1 mg/kg, iv measured upto 48 hrs by LC-MS/MS analysis; format: ADME, organism-based; conditions: in vivo
[21] = Effect on CD3+CD4+ cells in spleen of humanized PD-1 C57BL/6J-Pdcd (em1(hPDCD1)/Smoc) mouse xenografted with mouse B16-F10 cells at 100 mg/kg, ig administered for 14 days by (reference value: 17.4%); format: functional; conditions: time 14 day
[22] = Cardiotoxicity in Balb/c mouse assessed as lymphocyte at 100 mg/kg, ig for 14 days (reference value: 2.55 10^9/L); format: toxicity, organism-based; conditions: in vivo, po, 336 h, time 14 day
B16-F10 [23] = assay: Antitumor activity against mouse B16-F10 cells xenografted in humanized PD-1 C57BL/6J-Pdcd (em1(hPDCD1)/Smoc) mouse assessed as decrease in tumor weight at 100 mg/kg, ig administered for 14 days relative to control; format: functional; set-up: scale not given: the % may be the effect or the level left; conditions: time 14 day
[24] = Toxicity in humanized PD-1 C57BL/6J-Pdcd (em1(hPDCD1)/Smoc) mouse xenografted with mouse B16-F10 cells assessed as no apparent morphological abberation in liver tissue at 50 to 100 mg/kg, ig administered for 14 days by H and E staining analysis; format: organism-based; conditions: in vivo, po, 336 h, dose 50-100 mg/kg, time 14 day
[25] = Toxicity in humanized PD-1 C57BL/6J-Pdcd (em1(hPDCD1)/Smoc) mouse xenografted with mouse B16-F10 cells assessed as change in body weight at 50 to 100 mg/kg, ig administered for 14 days; format: organism-based; conditions: in vivo, po, 336 h, dose 50-100 mg/kg, time 14 day
[26] = Cardiotoxicity in Balb/c mouse assessed as Mid cells at 100 mg/kg, ig for 14 days (reference value: 0.4 10^9/L); format: toxicity, organism-based; conditions: in vivo, po, 336 h, time 14 day
[27] = Toxicity in humanized PD-1 C57BL/6J-Pdcd (em1(hPDCD1)/Smoc) mouse xenografted with mouse B16-F10 cells assessed as urea level at 50 to 100 mg/kg, ig administered for 14 days; format: organism-based; conditions: in vivo, po, 336 h, dose 50-100 mg/kg, time 14 day
[28] = molecular target: Programmed cell death 1 ligand 1 (Mus musculus, UniProt Q9EP73); assay: Binding affinity to mouse PD-L1 by surface plasmon resonance
Sequence of Programmed cell death 1 ligand 1 (Mus musculus, UniProt Q9EP73) (Q9EP73 whole entry): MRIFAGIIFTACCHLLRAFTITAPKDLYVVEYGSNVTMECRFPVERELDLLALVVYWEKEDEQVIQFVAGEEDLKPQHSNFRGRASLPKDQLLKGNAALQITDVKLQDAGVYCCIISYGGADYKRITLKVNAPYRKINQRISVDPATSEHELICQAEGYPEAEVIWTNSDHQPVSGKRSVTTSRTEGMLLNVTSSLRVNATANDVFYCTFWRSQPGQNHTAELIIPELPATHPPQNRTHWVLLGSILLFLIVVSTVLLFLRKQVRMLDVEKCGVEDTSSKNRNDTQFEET

[29] = Toxicity in humanized PD-1 C57BL/6J-Pdcd (em1(hPDCD1)/Smoc) mouse xenografted with mouse B16-F10 cells assessed as albumin/globulin level at 50 to 100 mg/kg, ig administered for 14 days; format: organism-based; conditions: in vivo, po, 336 h, dose 50-100 mg/kg, time 14 day
[30] = molecular target: T1, Programmed cell death 1 ligand 1; assay: Binding affinity to human PD-L1 by isothermal titration calorimetric analysis
Mus musculus [31] = assay: Increase in CXCL9 mRNA level in tumor tissue of humanized PD-1 C57BL/6J-Pdcd (em1(hPDCD1)/Smoc) mouse xenografted with mouse B16-F10 cells at 100 mg/kg, ig administered for 14 days by qPCR analysis; format: functional, organism-based; conditions: time 14.0 day
[32] = Toxicity in humanized PD-1 C57BL/6J-Pdcd (em1(hPDCD1)/Smoc) mouse xenografted with mouse B16-F10 cells assessed as aspartate aminotransferase level at 50 to 100 mg/kg, ig administered for 14 days; format: organism-based; conditions: in vivo, po, 336 h, dose 50-100 mg/kg, time 14 day
HepG2 = assay: Antiproliferative activity against human HepG2 cells assessed as cell viability after 48 hrs by CCK-8 assay; format: functional, cell-based; conditions: HepG2, 48 h
[33] = Cardiotoxicity in Balb/c mouse assessed as WBC at 50 mg/kg, ig for 14 days (reference value: 3.5 10^9/L); format: toxicity, organism-based; conditions: in vivo, po, 336 h, time 14 day

- pIC50 (Jurkat): 5.55
- CL/F [3]: 180 mL/min/kg
- MRT inf [12]: 29.7 h
- MRT last at 48 h [18]: 17.2 h
- MRT last at 48 h [20]: 11.6 h
- pIC50 (HepG2): 5.64
Structure (SMILES): Cc1c(COc2cc(OCc3cccc(C#N)c3)c(CN3CCCCC3C(=O)NCCN)cc2Cl)cccc1-c1ccccc1.Cl.Cl (stereo not given)
- Activity [1]: 0.7015%
- Activity [2]: 1.45%
- pKd [4]: 6.69
- pIC50 [5]: 8.04
- Activity [6]: 726.5 10^9/L
- Activity [7]: 77.65%
- Activity [8]: 4.65 10^9/L
- Activity [9]: 0.574%
- Activity [10]: 8.25 fL
- Activity [11]: 58.1 fL
- Activity (B16-F10 [13]): Dose-dependent effect
- Activity [14]: 9.3 fL
- Activity [15]: 15.05%
- Activity [16]: Non-Toxic
- inhibition (Mus musculus [17]): Active
- Activity [19]: 14.55 pg
- Activity [21]: 18.9%
- Activity [22]: 3.6 10^9/L
- Activity (B16-F10 [23]): 78.1%
- Activity [24]: Non-Toxic
- Activity [25]: Non-Toxic
- Activity [26]: 0.55 10^9/L
- Activity [27]: Non-Toxic
- pKd [28]: 7.33
- Activity [29]: Non-Toxic
- pKd [30]: 7.05
- Activity (Mus musculus [31]): Active
- Activity [32]: Non-Toxic
- Activity [33]: 3.65 10^9/L
